Reference: ChEMBL document CHEMBL6103670, “Development of Ethyl-Hydrazide-Based Selective Histone Deacetylase 6 (HDAC6) PROTACs” (ACS Med Chem Lett, 2025)

How the values were obtained:
[1] = Antiproliferative activity against human MM1.S cells assessed as cell viability incubated for 72 hrs by CellTiter-Glo assay; format: toxicity, cell-based
[2] = biological target: Histone deacetylase 3/Nuclear receptor corepressor 2 (HDAC3/NCoR2) (Homo sapiens, UniProt O15379); assay: Inhibition of C-terminal His tagged human recombinant HDAC3 (1 to 428 end residues)/N-terminal GST-tagged human NcoR2 expressed in Sf9 insect cells using Z-Lys(Ac)-AMC as substrate preincubated for 60 mins followed by substrate addition and measured after 90 mins by fluorescence based microplate reader analysis
[3] = Antiproliferative activity against human MM1.S cells assessed as cell viability at 50 uM incubated for 72 hrs by CellTiter-Glo assay relative to control; format: toxicity, cell-based; settings: read-out: Activity
MM1.S = assay: Induction of degradation of HDAC6 in human MM1.S cells at 0.5 uM incubated for 24 hrs by immunoblot analysis relative to control; format: cell-based

Chain of Histone deacetylase 3/Nuclear receptor corepressor 2 (HDAC3/NCoR2) (O15379 whole entry): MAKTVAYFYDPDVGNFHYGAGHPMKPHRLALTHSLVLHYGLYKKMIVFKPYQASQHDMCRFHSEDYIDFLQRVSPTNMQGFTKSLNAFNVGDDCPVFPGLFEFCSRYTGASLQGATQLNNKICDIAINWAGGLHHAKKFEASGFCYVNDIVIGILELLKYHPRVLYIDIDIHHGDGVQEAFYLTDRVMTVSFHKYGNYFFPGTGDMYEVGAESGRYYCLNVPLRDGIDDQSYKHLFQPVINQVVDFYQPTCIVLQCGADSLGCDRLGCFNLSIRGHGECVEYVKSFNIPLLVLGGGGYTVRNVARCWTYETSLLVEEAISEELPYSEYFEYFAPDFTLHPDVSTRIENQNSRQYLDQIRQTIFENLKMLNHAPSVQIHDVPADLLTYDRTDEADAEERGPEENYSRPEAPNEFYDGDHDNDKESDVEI
Chain of Histone deacetylase 3/Nuclear receptor corepressor 2 (HDAC3/NCoR2) (Q9Y618 whole entry, further chain): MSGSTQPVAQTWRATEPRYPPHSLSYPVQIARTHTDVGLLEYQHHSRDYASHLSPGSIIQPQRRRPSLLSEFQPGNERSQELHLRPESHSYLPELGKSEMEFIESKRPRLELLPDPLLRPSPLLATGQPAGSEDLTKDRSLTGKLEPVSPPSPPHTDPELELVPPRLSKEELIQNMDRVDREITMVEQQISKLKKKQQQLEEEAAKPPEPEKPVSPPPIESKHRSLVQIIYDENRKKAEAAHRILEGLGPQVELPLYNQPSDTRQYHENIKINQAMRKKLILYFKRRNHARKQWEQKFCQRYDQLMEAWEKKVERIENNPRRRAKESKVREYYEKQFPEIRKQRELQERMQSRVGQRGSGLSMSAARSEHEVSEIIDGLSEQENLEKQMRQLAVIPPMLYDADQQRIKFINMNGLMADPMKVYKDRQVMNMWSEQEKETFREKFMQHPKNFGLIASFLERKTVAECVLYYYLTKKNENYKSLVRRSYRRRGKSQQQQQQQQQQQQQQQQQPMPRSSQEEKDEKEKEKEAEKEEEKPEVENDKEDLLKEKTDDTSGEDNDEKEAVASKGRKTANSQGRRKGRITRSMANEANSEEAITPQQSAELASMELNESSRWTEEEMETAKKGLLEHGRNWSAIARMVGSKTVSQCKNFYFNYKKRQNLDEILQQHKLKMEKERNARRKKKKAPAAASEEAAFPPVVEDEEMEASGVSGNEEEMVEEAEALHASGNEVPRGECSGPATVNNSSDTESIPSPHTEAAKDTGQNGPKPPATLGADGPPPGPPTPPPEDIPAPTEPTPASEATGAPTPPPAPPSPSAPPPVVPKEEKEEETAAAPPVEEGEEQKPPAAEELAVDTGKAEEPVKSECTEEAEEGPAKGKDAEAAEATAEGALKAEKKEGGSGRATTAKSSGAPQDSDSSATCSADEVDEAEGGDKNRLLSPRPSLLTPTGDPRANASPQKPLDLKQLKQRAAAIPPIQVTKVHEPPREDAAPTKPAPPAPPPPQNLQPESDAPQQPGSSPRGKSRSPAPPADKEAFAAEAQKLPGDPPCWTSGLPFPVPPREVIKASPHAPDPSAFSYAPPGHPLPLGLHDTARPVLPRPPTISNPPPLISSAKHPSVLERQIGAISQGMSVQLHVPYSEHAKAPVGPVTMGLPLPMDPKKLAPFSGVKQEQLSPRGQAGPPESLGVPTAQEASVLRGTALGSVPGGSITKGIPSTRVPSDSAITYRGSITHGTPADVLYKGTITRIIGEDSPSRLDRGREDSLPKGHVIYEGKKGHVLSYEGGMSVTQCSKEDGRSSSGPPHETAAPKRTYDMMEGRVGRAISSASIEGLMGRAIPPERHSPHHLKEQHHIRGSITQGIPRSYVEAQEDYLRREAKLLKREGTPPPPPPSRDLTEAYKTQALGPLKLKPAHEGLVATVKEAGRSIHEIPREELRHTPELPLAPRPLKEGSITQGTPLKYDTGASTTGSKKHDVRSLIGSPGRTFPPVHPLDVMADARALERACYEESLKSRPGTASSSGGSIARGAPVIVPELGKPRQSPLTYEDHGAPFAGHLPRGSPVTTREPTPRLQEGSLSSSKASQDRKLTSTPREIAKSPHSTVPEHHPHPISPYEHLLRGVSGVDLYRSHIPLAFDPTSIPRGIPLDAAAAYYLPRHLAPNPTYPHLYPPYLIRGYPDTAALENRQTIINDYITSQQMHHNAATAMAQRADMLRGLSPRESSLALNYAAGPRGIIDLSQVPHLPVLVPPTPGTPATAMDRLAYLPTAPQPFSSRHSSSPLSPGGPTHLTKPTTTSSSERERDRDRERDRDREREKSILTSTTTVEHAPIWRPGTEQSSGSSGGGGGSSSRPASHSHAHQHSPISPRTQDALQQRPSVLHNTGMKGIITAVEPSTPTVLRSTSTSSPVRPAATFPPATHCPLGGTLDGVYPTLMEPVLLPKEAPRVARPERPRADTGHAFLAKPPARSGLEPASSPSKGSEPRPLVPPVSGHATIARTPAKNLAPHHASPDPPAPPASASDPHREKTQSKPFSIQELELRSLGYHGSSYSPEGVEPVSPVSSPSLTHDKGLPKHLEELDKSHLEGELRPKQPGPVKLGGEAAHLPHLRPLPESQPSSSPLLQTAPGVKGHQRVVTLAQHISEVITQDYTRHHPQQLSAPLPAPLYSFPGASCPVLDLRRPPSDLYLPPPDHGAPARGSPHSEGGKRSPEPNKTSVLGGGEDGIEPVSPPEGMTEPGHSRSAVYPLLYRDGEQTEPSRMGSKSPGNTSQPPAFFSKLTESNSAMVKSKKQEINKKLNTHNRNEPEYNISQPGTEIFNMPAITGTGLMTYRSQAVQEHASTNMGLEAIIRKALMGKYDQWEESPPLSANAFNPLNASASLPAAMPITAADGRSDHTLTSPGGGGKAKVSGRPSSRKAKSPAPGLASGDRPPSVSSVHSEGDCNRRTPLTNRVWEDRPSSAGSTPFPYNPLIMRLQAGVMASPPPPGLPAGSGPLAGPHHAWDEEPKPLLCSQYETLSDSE

Compound | IC50 at 72 h [1] [nM] | IC50 [2] [nM] | viability at 72 h, 50 µM [3] [%] | Activity (MM1.S) [%]
O=C(CCCCCCC(=O)Nc1ccccc1)NO [VORINOSTAT] | 800 | – | – | –
CCNNC(=O)c1ccc(CNC(=O)c2ccc(OCc3cn(CCOCCNc4cc5c(cc4F)C(=O)N(C4CCC(=O)NC4=O)C5=O)nn3)cc2)cc1 (configuration not stated) | 24900 | 332 | – | –
CCNNC(=O)c1ccc(CNC(=O)c2ccc(OCc3cn(CCCCCC(=O)N[C@H](C(=O)N4C[C@H](O)C[C@H]4C(=O)NCc4ccc(-c5scnc5C)cc4)C(C)(C)C)nn3)cc2)cc1 | – | 417 | > 50 | –
CCNNC(=O)c1ccc(CNC(=O)c2ccc(OCc3cn(CCCCCCNc4cc5c(cc4F)C(=O)N(C4CCC(=O)NC4=O)C5=O)nn3)cc2)cc1 (configuration not stated) | – | 611 | > 50 | –
CCNNC(=O)c1ccc(CNC(=O)c2ccc(NC(=O)COCCOCC(=O)N[C@H](C(=O)N3C[C@H](O)C[C@H]3C(=O)NCc3ccc(-c4scnc4C)cc3)C(C)(C)C)cc2)cc1 | – | 729 | > 50 | –
CCNNC(=O)c1ccc(CNC(=O)c2ccc(OCc3cn(CCCCCCNc4cc5c(cc4F)C(=O)N(C4CCC(=O)N(C)C4=O)C5=O)nn3)cc2)cc1 (configuration not stated) | – | 537 | > 50 | –
CCNNC(=O)c1ccc(CNC(=O)c2ccc(NC(=O)COCCOCCNc3cc4c(cc3F)C(=O)N(C3CCC(=O)NC3=O)C4=O)cc2)cc1 (configuration not stated) | – | 378 | > 50 | –
CCNNC(=O)c1ccc(CNC(=O)c2ccc(OCc3cn(CCOCCC(=O)N[C@H](C(=O)N4C[C@H](O)C[C@H]4C(=O)NCc4ccc(-c5scnc5C)cc4)C(C)(C)C)nn3)cc2)cc1 | – | 244 | > 50 | –
O=C(CCCCCCNC(=O)c1ccc(NC(=O)CCCCCCCNC(=O)COc2cccc3c2C(=O)N(C2CCC(=O)NC2=O)C3=O)cc1)NO (configuration not stated) | – | 164 | > 50 | 94.5
CCNNC(=O)c1ccc(CNC(=O)c2ccc(NC(=O)CCCCCCCNc3cc4c(cc3F)C(=O)N(C3CCC(=O)NC3=O)C4=O)cc2)cc1 (configuration not stated) | 18400 | 238 | – | –
CCNNC(=O)c1ccc(CNC(=O)c2ccc(NC(=O)CCCCCCC(=O)N[C@H](C(=O)N3C[C@H](O)C[C@H]3C(=O)NCc3ccc(-c4scnc4C)cc3)C(C)(C)C)cc2)cc1 | – | 126 | > 50 | –
